Experimental data reported in US12409184B2, “Iloprost compositions and formulations thereof” (BTG INTERNATIONAL INC., priority 2020, dated 2025).

Assays:
[1] = test system: subjects with symptomatic Raynaud's Phenomenon (RP) secondary to Systemic Sclerosis (SSc); experiment: Example 1 double-blind placebo-controlled study, ePRO diary efficacy on symptomatic RP attacks; type: in vivo, human; settings: for Weekly Frequency of Symptomatic RP Attacks, Treatment comparison of change vs placebo, LS mean difference in change: ANCOVA, N = 17 per group, p 0.8498
From the text: This was a multicenter, double-blind, randomized, placebo-controlled study to provide an initial evaluation of the effect of iloprost on the symptomatic relief of RP attacks in subjects with SSc. As a pilot study, it was not powered to provide a definitive estimate of the effect of iloprost. Importantly, this study tested the feasibility of collecting the study endpoints and logistics of study operations that included, among other things, an electronic patient-reported outcomes (ePRO) diary for the evaluation of subject response to the treatment, as well as the infusion workflow for this multiday treatment. Subjects were allowed to continue receiving stable standard of care therapies for the management of symptomatic RP (e.g., calcium channel blockers, angiotensin-converting enzyme inhibitors, statins, fluoxetine, and low-dose acetylsalicylic acid) or may have participated without the use of background standard of care therapies.
The primary objective was to evaluate the efficacy of iloprost compared to placebo on the change in the weekly frequency of symptomatic Raynaud's Phenomenon (RP) attacks from baseline in subjects with symptomatic RP secondary to Systemic Sclerosis (SSc). The exploratory objectives were the following: • To evaluate the efficacy of iloprost compared to placebo on the severity of RP attack symptoms • To evaluate the efficacy of iloprost compared to placebo on the Raynaud's Condition Score • To evaluate the efficacy of iloprost compared to placebo on hand function as assessed by the Cochin Hand Function Scale (CHFS) • To evaluate the safety and tolerability of iloprost • To evaluate the efficacy of iloprost compared to placebo on symptomatic RP attack duration • To evaluate the efficacy of iloprost compared to placebo on the worst pain associated with symptomatic RP • To evaluate the efficacy of iloprost compared to placebo on the subject assessment of overall improvement in symptomatic RP • To evaluate the pharmacokinetics (PK) of iloprost in subjects with symptomatic RP secondary to SSc
The study consisted of an up to 30-day screening period during which subjects completed a daily ePRO diary to record information regarding all symptomatic RP attacks (e.g., severity of symptoms, duration, and hand function). […] The baseline ePRO diary completion period may have been extended beyond 10 days in order to accommodate the preferred Monday through Friday dosing schedule. The ePRO symptomatic RP attack data from this time period were used for the calculation of the baseline frequency of symptomatic RP attacks.
Subjects were randomized in a 1:1 ratio to iloprost injection for IV use or placebo. Randomization was stratified based on the use of phosphodiesterase inhibitors at screening. Study drug administration began on Day 1, and subjects received study drug for 5 consecutive days (e.g., Monday through Friday) as an IV infusion over 6 hours each day via a peripheral line (NovaCath™ Integrated IV Catheter System) or a peripherally inserted central catheter using an infusion pump.
On Day 1, study drug was initiated at a starting dose of 0.5 ng/kg/min, and dose increases occurred every 30 minutes (+5 minutes) in increments of 0.5 ng/kg/min up to 2.0 ng/kg/min or the individual tolerated dose. If dose-limiting adverse events (e.g., headache, flushing, jaw pain, myalgia, nausea, or vomiting) occurred that could not be tolerated by the subject, or if the subject experienced symptomatic hypotension, then the dose was reduced in a step-wise manner by 0.5 ng/kg/min every 30 minutes (+5 minutes) until a tolerated dose was determined or the infusion was stopped until the symptoms resolved at which point the study drug was reinitiated at a previously tolerated dose. If symptomatic hypotension or a dose-limiting adverse event occurred during administration of iloprost at the starting dose (i.e., 0.5 ng/kg/min), the infusion was reduced to 0.25 ng/kg/min. […]

[2] = Example 1 PK sub-study, plasma iloprost by LC-MS; type: in vivo, human; settings: for CLss, Mean (SD): n 1
Procedure: Eligible subjects were given the option to participate in a PK sub-study. Subjects who participated in the sub-study provided plasma samples for PK analysis. The samples were analyzed for iloprost concentrations using validated liquid chromatography mass spectrometry methods.
The following PK parameters were calculated whenever possible, based on the plasma concentrations of iloprost: • Steady state plasma concentration just before infusion was stopped • Area under the plasma concentration versus time curve (AUC) from time of dosing to the last time point with measurable concentration (AUC0-last) • AUC from time 0 extrapolated to infinity (AUC0-inf) • Percentage of AUC obtained by extrapolation (AUCextrape %) • Terminal elimination constant (λz) • Plasma terminal elimination half-life (t½) • Plasma clearance (CL), calculated as dose/AUC0-inf • Volume of distribution (V), calculated as dose/(λz×AUC0-inf) Safety

## CC#CCC(C)[C@H](O)/C=C/[C@@H]1[C@H]2C/C(=C/CCCC(=O)O)C[C@H]2C[C@H]1O (stereo partly drawn) [Iloprost, (5E)-5-[(3aS,4R,5R,6aS)-5-hydroxy-4-[(E,3S)-3-hydroxy-4-methyloct-1-en-6-ynyl]-3,3a,4,5,6,6a-hexahydro-1H-pentalen-2-ylidene]pentanoic acid]
[1]; 11-point NRS (0 to 10), before treatment, N = 17
  Average Overall Severity of Symptomatic RP Attacks, Baseline, Mean: 5.30
[1]; 11-point NRS, p 0.4409
  Average Overall Severity of Symptomatic RP Attacks, Treatment comparison of change vs placebo, LS mean difference in change: −0.47
[1]
  Weekly Frequency of Symptomatic RP Attacks, Treatment comparison of change vs placebo, LS mean difference in change: −0.77
[1]; listed as iloprost
  Weekly Frequency of Symptomatic RP Attacks, Treatment comparison of change vs placebo, LS mean difference in change: not statistically significant
[1]; baseline to double-blind endpoint
  Exploratory endpoints (overall severity, Raynaud's Condition Score, weekly duration, worst symptoms, PGI-S and PGI-C): differences in the iloprost group compared to placebo: not statistically significant
[1]; subgroup Randomization Date After 3 Jun. 2019, p 0.7116
  Weekly Frequency of Symptomatic RP Attacks, Treatment comparison of change vs placebo, LS mean difference in change (treatment effect): 2.04
[2]; Maximum Tolerated Dose Level 1.00 ng/kg/min
  CLss, Mean (SD): 91.22 (NA) L/h
[2]; Maximum Tolerated Dose Level 1.50 ng/kg/min
  CLss, Mean (SD): 6.01 (NA) L/h
[2]; Maximum Tolerated Dose Level 1.50 ng/kg/min, n 2
  Css, Geometric mean (geometric CV %): 32.90 (284.8) pg/mL
[2]; Maximum Tolerated Dose Level 2.00 ng/kg/min
  CLss, Mean (SD): 64.53 (NA) L/h
